From patent US20250281633A1, “HER2 TARGETING FC ANTIGEN BINDING FRAGMENT-DRUG CONJUGATES” (MERCK PATENT GMBH, priority 2021, published 2025)

What was measured:
[1] = target: FcRn; test: KD [nM]
Description: Errors are standard errors from fitting using FortéBio data analysis software 9.1. Fitting quality is characterized by R^2. Data is derived from BLI sensorgrams represented in FIG. 22 and FIG. 23.

[2] = tested on: HER2 positive (SKBR-3, HCC-1954) and HER2 negative (MDA-MB-468) cells; test: Cellular binding analysis by flow cytometry; type: cell-based, human; details: 100 nM, 60 min, 4° C.
Protocol: Relative order of fluorescence intensity of distinct variants on HER2 positive cells correspond to their HER2 binding affinity. Cells were incubated with 100 nM of Fcab/antibody for 60 min at 4° C., washed twice with PBS-1% BSA, incubated for 30 min with 500 nM of AF488-labeled detection antibody (Jackson ImmunoResearch) at 4° C. in darkness, washed twice with PBS-1% BSA, and finally fluorescence intensity was measured applying an Attune NxT flow cytometer (Invitrogen™).

Substance | Kd [1] [nM] | cellular binding to HCC-1954 cells (in words) [2]
huFc: native human Fc-based negative control [listing 1 of 2 here] | 524 ± 13 | 
huFc: native human Fc-based negative control [listing 2 of 2 here] |  | binds only slightly
